Literature values, collected in patent US20100160295A1, “TREATMENT OF RESTLESS LEG SYNDROME AND SLEEP DISORDERS” (SYNOSIA THERAPEUTICS, priority 2008, published 2010).

Tested on: RLS patients
Details: RLS treatment, cited from earlier work

Structure (SMILES)	major side effects reported	augmentation (worsening of symptoms following initiation of therapy), patients affected (estimated)
CCCN[C@H]1CCc2nc(N)sc2C1 [Pramipexole]	insomnia, dizziness, constipation, asthenia and hallucinations	–
N[C@@H](Cc1ccc(O)c(O)c1)C(=O)O [levidopa]	–	50-85%
